Patent US9849130B2 (KamTek, Inc., priority 2014, dated 2017)
Converted amounts (≈) assume the structure as drawn. Where two headings read alike, the source gives them in different places.

Experiments:
[1] = tested on: Staphylococcus aureus strains; experiment: MIC by microdilution in Mueller-Hinton broth against Staphylococcus aureus strains; assay type: cell-based
CD = experiment: Animal model testing of CDI (Syrian Golden Hamster model), survival; assay type: in vivo
[2] = cited from earlier work
[3] = cited from earlier work; remark: listed apart in the source
[4] = in vivo; cited from earlier work
[5] = CFM formulations suitable for in vivo dosing (Table 18)
CD strain VPI 1063 = experiment: MIC of CFM formulations following incubation with feces (supernatants); assay type: cell-based, Clostridium difficile; settings: for MIC: Clostridioides difficile
[6] = Staphylococcus aureus strain NR 10129
[7] = Staphylococcus aureus strain NR 10186
[8] = Staphylococcus aureus strain NR 10187
[9] = Staphylococcus aureus strain NR 10188
[10] = Staphylococcus aureus strain NR 10189
[11] = Staphylococcus aureus strain NR 10191
[12] = Staphylococcus aureus strain NR 10192
[13] = Staphylococcus aureus strain NR 10193
[14] = Staphylococcus aureus strain NR 10194
[15] = Staphylococcus aureus strain NR 10198
[16] = Staphylococcus aureus, Staphylococcus aureus strain NR 10129, read-out: MIC
[17] = Staphylococcus aureus, Staphylococcus aureus strain NR 10186, read-out: MIC
[18] = Staphylococcus aureus, Staphylococcus aureus strain NR 10187, read-out: MIC
[19] = Staphylococcus aureus, Staphylococcus aureus strain NR 10188, read-out: MIC
[20] = Staphylococcus aureus, Staphylococcus aureus strain NR 10189, read-out: MIC
[21] = Staphylococcus aureus, Staphylococcus aureus strain NR 10191, read-out: MIC
[22] = Staphylococcus aureus, Staphylococcus aureus strain NR 10192, read-out: MIC
[23] = Staphylococcus aureus, Staphylococcus aureus strain NR 10193, read-out: MIC
[24] = Staphylococcus aureus, Staphylococcus aureus strain NR 10194, read-out: MIC
[25] = Staphylococcus aureus, Staphylococcus aureus strain NR 10198, read-out: MIC

SMILES: CCN=c1cc2n(-c3ccc(Cl)cc3)c3ccccc3nc-2cc1Nc1ccc(Cl)cc1 [B746]
- MIC [1, 6]: 4 µg/mL (≈ 8.71 µM)
- MIC [1, 7]: 2 µg/mL (≈ 4.35 µM)
- MIC [1, 8]: 4 µg/mL (≈ 8.71 µM)
- MIC [1, 9]: 4 µg/mL (≈ 8.71 µM)
- MIC [1, 10]: 4 µg/mL (≈ 8.71 µM)
- MIC [1, 11]: 4 µg/mL (≈ 8.71 µM)
- MIC [1, 12]: 4 µg/mL (≈ 8.71 µM)
- MIC [1, 13]: 4 µg/mL (≈ 8.71 µM)
- MIC [1, 14]: 4 µg/mL (≈ 8.71 µM)
- MIC [1, 15]: 16 µg/mL (≈ 34.8 µM)

SMILES: CCN=c1cc2n(-c3cccc(C(F)(F)F)c3)c3ccccc3nc-2cc1Nc1cccc(C(F)(F)F)c1 [B4129]
- MIC [1, 6]: 32 µg/mL (≈ 60.8 µM)
- MIC [1, 7]: >32 µg/mL
- MIC [1, 8]: >32 µg/mL
- MIC [1, 9]: >32 µg/mL
- MIC [1, 10]: >32 µg/mL
- MIC [1, 11]: >32 µg/mL
- MIC [1, 12]: >32 µg/mL
- MIC [1, 13]: >32 µg/mL
- MIC [1, 14]: 32 µg/mL (≈ 60.8 µM)
- MIC [1, 15]: >32 µg/mL

SMILES: CC(C)N=c1cc2n(-c3ccc(Cl)cc3)c3ccccc3nc-2cc1Nc1ccc(Cl)cc1 [CFM, 3-(p-chloroanilino)-10-(p-chlorophenyl)-2,10-dihydro-2-iso-propyliminophenazine]
- MIC [1, 16]: 16 µg/mL (≈ 33.8 µM)
- MIC [1, 17]: 2 µg/mL (≈ 4.22 µM)
- MIC [1, 18]: > 32 µg/mL
- MIC [1, 19]: 8 µg/mL (≈ 16.9 µM)
- MIC [1, 20]: 8 µg/mL (≈ 16.9 µM)
- MIC [1, 21]: 4 µg/mL (≈ 8.45 µM)
- MIC [1, 22]: 8 µg/mL (≈ 16.9 µM)
- MIC [1, 23]: 4 µg/mL (≈ 8.45 µM)
- MIC [1, 24]: 4 µg/mL (≈ 8.45 µM)
- MIC [1, 25]: 16 µg/mL (≈ 33.8 µM)
- protection at higher dosages (CD; 20 and 40 mg/kg versus 10 mg/kg): did not increase the protection
- protection during 28 days of observation (CD; CFM dosage of 10 mg/kg): 30%
- survival for 27 days (CD; CFM in aqueous suspension of CMC at 10 mg/kg/once a day): 30%
- protection on animal survival by day 9 after infection (CD; CFM in aqueous suspension of CMC, oral, 10 mg/kg/day, 5 days): 50%
- survival by day 7 (CD; drug alone at the same dosage as in the combination (Lamprene 10 mg/kg twice a day)): 0%
- solubility in water [2]: 0.225 µg/mL (≈ 0.475 µM)
- half-life ([3]; after a single dose of 100 mg): about 10 days
- half-life ([3]; following long-term high dosage of 300 mg): about 70 days
- orally absorbed bioavailability ([3]; in vivo, po): 45-65%
- gastrointestinal conditions including abdominal and epigastric pain, nausea, vomiting and/or diarrhea [4]: 40-50 % of patients
- icothyosis and dryness of skin [4]: 8-28 % of patients
- ocular conditions including conjunctival pigmentation, itching and dryness [4]: approximately 1 % of patients
- rash and pruritus [4]: 1-5 % of patients
- skin pigmentation [4]: 75-100 % of patients
- solubility ([5]; Cremophor-EL (100%, liquid), organic solvent or mixture, in Cremophor-EL, liquid, 100%): 8000 µg/mL (≈ 16900 µM)
- solubility ([5]; Cremophor-EL (100%, liquid), organic solvent or mixture, in Cremophor-EL, liquid, 100%, if kept for long time (3-5 days)): 10000 µg/mL (≈ 21100 µM)
- solubility ([5]; Phosal 50 PG (phospholipids), oil or lipid, in Phosal 50 PG (phospholipids), thick oily liquid): 10000 µg/mL (≈ 21100 µM)
- solubility ([5]; Phosal 53 MCT (phospholipids), oil or lipid, in Phosal 53 MCT (phospholipids), thick oily liquid): 10000 µg/mL (≈ 21100 µM)
- solubility ([5]; Tween 80 (100%, liquid), organic solvent or mixture, in Tween 80, liquid, 100%): 12000 µg/mL (≈ 25300 µM)
- solubility ([5]; Tween 80 (100%, liquid), organic solvent or mixture, in Tween 80, liquid, 100%, if kept for long time (3-5 days)): 15000 µg/mL (≈ 31700 µM)
- Stability ([5]; in Cremophor-EL, liquid, 100%, remains stable following dilution in water/medium/saline/PBS): Stable, and remains
- Stability ([5]; in Olive oil, canola oil, and coconut oil, diluted only in oils, forms emulsions in water): Stable, should be
- Stability ([5]; in Phosal 50 PG (phospholipids), forms emulsion in water): Stable, clear, thick
- Stability ([5]; in Phosal 53 MCT (phospholipids), forms emulsion in water): Stable, clear, thick
- Stability ([5]; in Tween 80, liquid, 100%, stable after dilution in water or culture medium, PBS, precipitates slowly in saline): Stable undiluted,
- solubility ([5]; olive oil, canola oil, and coconut oil (100%, liquid), oil or lipid, in Olive oil, canola oil, and coconut oil, liquid, 100%): 5000 µg/mL (≈ 10600 µM)
- solubility ([5]; polyethylene glycol (PEG-300, PEG-400), 100%, liquid, organic solvent or mixture, in Polyethylene glycol (PEG-300, PEG-400)): 5000 µg/mL (≈ 10600 µM)

SMILES: Cc1ncc([N+](=O)[O-])n1CCO [MET, metronidazole]
- MIC [1, 16]: > 32 µg/mL
- MIC [1, 17]: > 32 µg/mL
- MIC [1, 18]: > 32 µg/mL
- MIC [1, 19]: > 32 µg/mL
- MIC [1, 20]: > 32 µg/mL
- MIC [1, 21]: > 32 µg/mL
- MIC [1, 22]: > 32 µg/mL
- MIC [1, 23]: > 32 µg/mL
- MIC [1, 24]: > 32 µg/mL
- MIC [1, 25]: > 32 µg/mL
- MIC in Fecal extracts (CD strain VPI 1063; 128 μg/ml in 20% feces, 2 hours at 37° C., centrifuged, supernatants filter sterilized and tested, CD strain VPI 1063): >32 µg/mL
- MIC (CD strain VPI 1063; VPI1063, 128 μg/ml in 20% feces, 2 hours at 37° C., centrifuged, supernatants filter sterilized and tested, CD strain VPI 1063, read-out: MIC in Fecal extracts): > 32 µg/mL
- MIC (CD strain VPI 1063; VPI1063, serial dilutions in BHI, without centrifugation, CD strain VPI 1063, read-out: MIC in BHI control): 0.062 µg/mL

SMILES: CN[C@H](CC(C)C)C(=O)N[C@H]1C(=O)N[C@@H](CC(N)=O)C(=O)N[C@H]2C(=O)N[C@H]3C(=O)N[C@H](C(=O)N[C@H](C(=O)O)c4cc(O)cc(O)c4-c4cc3ccc4O)[C@H](O)c3ccc(c(Cl)c3)Oc3cc2cc(c3O[C@@H]2O[C@H](CO)[C@@H](O)[C@H](O)[C@H]2O[C@H]2C[C@](C)(N)[C@H](O)[C@H](C)O2)Oc2ccc(cc2Cl)[C@H]1O [VAN, vancomycin]
- MIC ([1]; Staphylococcus aureus, S. aureus NR 10129): 1 µg/mL (≈ 0.69 µM)
- MIC ([1]; Staphylococcus aureus, S. aureus NR 10186): 1 µg/mL (≈ 0.69 µM)
- MIC ([1]; Staphylococcus aureus, S. aureus NR 10187): 2 µg/mL (≈ 1.38 µM)
- MIC ([1]; Staphylococcus aureus, S. aureus NR 10188): 1 µg/mL (≈ 0.69 µM)
- MIC ([1]; Staphylococcus aureus, S. aureus NR 10189): 2 µg/mL (≈ 1.38 µM)
- MIC ([1]; Staphylococcus aureus, S. aureus NR 10191): 1 µg/mL (≈ 0.69 µM)
- MIC ([1]; Staphylococcus aureus, S. aureus NR 10192): 1 µg/mL (≈ 0.69 µM)
- MIC ([1]; Staphylococcus aureus, S. aureus NR 10193): 2 µg/mL (≈ 1.38 µM)
- MIC ([1]; Staphylococcus aureus, S. aureus NR 10194): 1 µg/mL (≈ 0.69 µM)
- MIC ([1]; Staphylococcus aureus, S. aureus NR 10198): 2 µg/mL (≈ 1.38 µM)
- MIC ([1]; Staphylococcus aureus, Staphylococcus aureus strain NR 10129): 1 µg/mL (≈ 0.69 µM)
- MIC ([1]; Staphylococcus aureus, Staphylococcus aureus strain NR 10186): 1 µg/mL (≈ 0.69 µM)
- MIC ([1]; Staphylococcus aureus, Staphylococcus aureus strain NR 10187): 2 µg/mL (≈ 1.38 µM)
- MIC ([1]; Staphylococcus aureus, Staphylococcus aureus strain NR 10188): 1 µg/mL (≈ 0.69 µM)
- MIC ([1]; Staphylococcus aureus, Staphylococcus aureus strain NR 10189): 2 µg/mL (≈ 1.38 µM)
- MIC ([1]; Staphylococcus aureus, Staphylococcus aureus strain NR 10191): 1 µg/mL (≈ 0.69 µM)
- MIC ([1]; Staphylococcus aureus, Staphylococcus aureus strain NR 10192): 1 µg/mL (≈ 0.69 µM)
- MIC ([1]; Staphylococcus aureus, Staphylococcus aureus strain NR 10193): 2 µg/mL (≈ 1.38 µM)
- MIC ([1]; Staphylococcus aureus, Staphylococcus aureus strain NR 10194): 1 µg/mL (≈ 0.69 µM)
- MIC ([1]; Staphylococcus aureus, Staphylococcus aureus strain NR 10198): 2 µg/mL (≈ 1.38 µM)
- survival by day 14 (CD; drug alone at the same dosage as in the combination (VAN 5 mg/kg twice a day)): 0%
- MIC (CD strain VPI 1063; VPI1063, 2 h, read-out: MIC in Centrifuged BHI control): 0.5 µg/mL
- MIC (CD strain VPI 1063; VPI1063, 2 h, read-out: MIC in Fecal extracts): 1 µg/mL
- MIC (CD strain VPI 1063; VPI1063, read-out: MIC in BHI control): 0.5 µg/mL
- increase in MIC after incubation in feces (CD strain VPI 1063; Table 21): 2 fold
